From patent US4401812A, “Anthracycline antibiotics” (Hoffmann-La Roche Inc., priority 1980, dated 1983)
Converted amounts (≈) assume the structure as drawn. Read-outs that look alike come from different tables or passages of the source.

How the values were obtained:
Sarcina lutea IAM1009 = experiment: in vitro MIC, agar streak method; format: cell-based; settings: Heart infusion agar
[1] = system: Staphylococcus aureus 209P IAM-1011; experiment: in vitro MIC, agar streak method; format: cell-based; settings: Heart infusion agar
in vivo = settings: mouse, ip, mice, single i.p. injection, judged 72 hours after, read-out: acute intraperitoneal LD50
Procedure: The acute intraperitoneal LD50 in mice judged 72 hours after a single injection of the antibiotics is about 90 mg/kg for auramycin C, auramycin D, sulfurmycin C and sulfurmycin D, 40~80 mg/kg for auramycin G and sulfurmycin G and 20~40 mg/kg for auramycin E and sulfurmycin E.

[2] = system: Candida albicans ATCC-10231; experiment: in vitro MIC, agar streak method; format: cell-based; settings: Candida albicans ATCC-10231, Sabouraud dextrose agar
Source text: (§1) | ^(2) Sabouraud dextrose agar

[3] = system: Candida tropicalis ATCC-13803; experiment: in vitro MIC, agar streak method; format: cell-based; settings: Candida tropicalis ATCC-13803, Sabouraud dextrose agar
Source text: as §1

P388 leukaemia = experiment: Antitumor effect against P388 leukaemia in CDF1 mice; format: in vivo; settings: Mus musculus, ip, days 1, 5 and 9, 1×10^6 P388 cells i.p., CDF1 mice, read-out: Mean survival (T/C, %); for response vs control in vivo at 3.75 mg/kg: 3.75 mg/kg/day i.p.; for response vs control in vivo at 7.5 mg/kg: 7.5 mg/kg/day i.p.; for response vs control in vivo at 15 mg/kg: 15.0 mg/kg/day i.p.; for response vs control in vivo at 1.5 mg/kg: 1.5 mg/kg/day i.p.; for response vs control in vivo at 3 mg/kg: 3.0 mg/kg/day i.p.; for response vs control in vivo at 6 mg/kg: 6.0 mg/kg/day i.p.; for response vs control in vivo at 12 mg/kg: 12.0 mg/kg/day i.p.
Procedure: The anthracycline glycosides provided by the present invention were tested against P388 leukaemia in mice. When CDF1 mice are inoculated with 1×10^6 cells of P388 intraperitoneally and each of the antibiotics is administered intraperitoneally on days 1, 5 and 9, the survival time of the treated mice is prolonged as shown in Table 5 hereinafter.

[4] = system: Bacillus subtilis IAM-1027; experiment: in vitro MIC, agar streak method; format: cell-based; settings: Bacillus subtilis IAM-1027, Heart infusion agar
Source text: (§2) | ^(1) Heart infusion agar

[5] = system: Mycobacterium smegmatis IFO-13167; experiment: in vitro MIC, agar streak method; format: cell-based; settings: Mycolicibacterium smegmatis, IFO13167
Source text: as §2

[6] = system: Staphylococcus aureus 209P Stf; experiment: in vitro MIC, agar streak method; format: cell-based; settings: Heart infusion agar
Source text: as §2

[7] = system: Pseudomonas aeruginosa IFO-12689; experiment: in vitro MIC, agar streak method; format: cell-based; settings: IFO12689, Heart infusion agar
Source text: as §2

[8] = system: Micrococcus flavus ATCC-10240; experiment: in vitro MIC, agar streak method; format: cell-based; settings: Heart infusion agar
Source text: as §2

[9] = system: Escherichia coli NIHJ IFO-12734; experiment: in vitro MIC, agar streak method; format: cell-based; settings: Escherichia coli NIHJ IFO-12734, Heart infusion agar
Source text: as §2

[10] = system: Escherichia coli K-12 IAM-1264; experiment: in vitro MIC, agar streak method; format: cell-based; settings: Escherichia coli K-12 IAM-1264, Heart infusion agar
Source text: as §2

Bacillus cereus Rol79B = experiment: in vitro MIC, agar streak method; format: cell-based; settings: Heart infusion agar
Source text: as §2

[11] = system: Staphylococcus epidermidis IFO-12993; experiment: in vitro MIC, agar streak method; format: cell-based; settings: Heart infusion agar
Source text: as §2

[12] = Micrococcus luteus, IAM1009, Sarcina lutea IAM-1009, read-out: MIC
[13] = ATCC10240, Micrococcus flavus ATCC-10240, read-out: MIC
[14] = Staphylococcus aureus, read-out: MIC
[15] = Micrococcus flavus, ATCC10240, Micrococcus flavus ATCC-10240, read-out: MIC
[16] = Staphylococcus epidermidis, IFO12993, Staphylococcus epidermidis IFO-12993, read-out: MIC

Row | SMILES | MIC (Sarcina lutea IAM1009; [12]) [µg/mL] | MIC ([1]; read-out: MIC) [µg/mL] | LD50 at 72 h (in vivo) [mg/kg] | MIC ([2]; ATCC10231, read-out: MIC) [µg/mL] | MIC ([3]; ATCC13803, read-out: MIC) [µg/mL] | response vs control in vivo at 3.75 mg/kg (P388 leukaemia) [%] | response vs control in vivo at 7.5 mg/kg (P388 leukaemia) [%] | response vs control in vivo at 15 mg/kg (P388 leukaemia) [%] | MIC ([4]; IAM1027, read-out: MIC) [µg/mL] | MIC [6] [µg/mL] | MIC [7] [µg/mL] | MIC [8, 13] [µg/mL] | MIC ([9]; IFO12734, read-out: MIC) [µg/mL] | MIC ([10]; IAM1264, read-out: MIC) [µg/mL] | MIC [1, 14] [µg/mL] | response vs control in vivo at 1.5 mg/kg (P388 leukaemia) [%] | response vs control in vivo at 3 mg/kg (P388 leukaemia) [%] | response vs control in vivo at 6 mg/kg (P388 leukaemia) [%] | response vs control in vivo at 12 mg/kg (P388 leukaemia) [%] | MIC (Bacillus cereus Rol79B; read-out: MIC) [µg/mL] | further results
1 | COC(=O)C1c2cc3c(c(O)c2C(OC2CC(N(C)C)C(OC4CC(O)C(O)C(C)O4)C(C)O2)CC1(C)O)C(=O)c1c(O)cccc1C3=O (centres unmarked) [Auramycin C] | 6.25 (≈ 9.11 µM) | 6.25 (≈ 9.11 µM) | ~90 | > 50 | > 50 | 130 | 141 | 128 | 6.25 (≈ 9.11 µM) | 6.25 (≈ 9.11 µM) | > 50 | 6.25 (≈ 9.11 µM) | > 50 | > 50 | – | – | – | – | – | – | response vs control in vivo at 1.88 mg/kg (P388 leukaemia; 1.88 mg/kg/day i.p.): 135%; MIC [5]: 6.25 µg/mL (≈ 9.11 µM)
2 | COC(=O)C1c2cc3c(c(O)c2C(OC2CC(N(C)C)C(O)C(C)O2)CC1(C)O)C(=O)c1c(O)cccc1C3=O (centres unmarked) [Auramycin D] | 6.25 (≈ 11.2 µM) | 12.5 (≈ 22.5 µM) | ~90 | > 50 | > 50 | 103 | 149 | 141 | 12.5 (≈ 22.5 µM) | 12.5 (≈ 22.5 µM) | > 50 | 12.5 (≈ 22.5 µM) | > 50 | > 50 | – | – | – | – | – | – | MIC ([5]; Mycobacterium smegmatis IFO-13167, Heart infusion agar, read-out: MIC): 3.13 µg/mL (≈ 5.63 µM)
3 | COC(=O)C1c2cc3c(c(O)c2C(OC2CC(N(C)C)C(OC4CC(O)C(OC5CCC(O)C(C)O5)C(C)O4)C(C)O2)CC1(C)O)C(=O)c1c(O)cccc1C3=O (centres unmarked) [Auramycin E] | 3.12 (≈ 3.9 µM) | – | 20 to 40 | > 50 | > 50 | – | – | – | 3.12 (≈ 3.9 µM) | – | – | – | > 50 | > 50 | 1.56 (≈ 1.95 µM) | 131 | 139 | 158 | 165 | 0.39 (≈ 0.488 µM) | MIC [8, 15]: 3.12 µg/mL (≈ 3.9 µM); MIC [11, 16]: 3.12 µg/mL (≈ 3.9 µM)
4 | COC(=O)C1c2cc3c(c(O)c2C(OC2CC(N(C)C)C(OC4CC(O)C(OC5CCC(O)C(C)O5)C(C)O4)C(C)O2)CC1(C)O)C(=O)c1c(O)cccc1C3=O (centres unmarked) [Auramycin F] | – | – | – | – | – | – | – | – | – | – | – | – | – | – | – | – | – | – | – | – | MIC (Sarcina lutea IAM1009; Sarcina lutea IAM-1009): 3.12 µg/mL (≈ 3.9 µM); MIC [1]: 3.12 µg/mL (≈ 3.9 µM); MIC [2]: > 50 µg/mL; MIC [3]: > 50 µg/mL; MIC [4]: 3.12 µg/mL (≈ 3.9 µM); MIC (Bacillus cereus Rol79B): 0.39 µg/mL (≈ 0.488 µM); MIC ([8]; Micrococcus flavus ATCC-10240): 3.12 µg/mL (≈ 3.9 µM); MIC ([11]; Staphylococcus epidermidis IFO-12993): 3.12 µg/mL (≈ 3.9 µM); MIC [9]: > 50 µg/mL; MIC [10]: > 50 µg/mL
5 | COC(=O)C1c2cc3c(c(O)c2C(OC2CC(N(C)C)C(OC4CCC(OC5CCC(O)C(C)O5)C(C)O4)C(C)O2)CC1(C)O)C(=O)c1c(O)cccc1C3=O (centres unmarked) [Auramycin G] | 6.25 (≈ 7.97 µM) | – | 40 to 80 | > 50 | > 50 | – | – | – | 12.5 (≈ 15.9 µM) | – | – | – | > 50 | > 50 | 6.25 (≈ 7.97 µM) | 102 | 109 | 105 | 119 | 0.78 (≈ 0.995 µM) | MIC [8, 15]: 6.25 µg/mL (≈ 7.97 µM); MIC [11, 16]: 6.25 µg/mL (≈ 7.97 µM)
